According to US20070185122A1, “Use of efletirizine for treating persistent allergic rhinitis” (priority 2003, published 2007):

Legend:
[1] = tested on: persistent allergic rhinitis; assay: clinical study of efletirizine dihydrochloride in persistent allergic rhinitis (T5SS, RQLQ, SF-36), placebo-controlled; type: in vivo, adult patients; details: patients with persistent allergic rhinitis
Excerpt: A study relative to the clinical effect of efletirizine dihydrochloride is planed to establish on the intention to treat (ITT population) whether an approximately 6 month efletirizine treatment can improve the quality of life and clinical symptoms from adult patients suffering from persistent allergic rhinitis, when compared to placebo.
Secondary parameters of efficacy include different durations of treatment, different symptoms, different quality of life questionnaires, the incidence of co-morbidities suspected to be linked to allergic rhinitis and pharmaco-economic variables. The safety of this long-term treatment with efletirizine is also evaluated.
The target population of this study consists of adults aged more than 18 years suffering from persistent allergic rhinitis [WHO Initiative on Allergic Rhinitis and its Impact on Asthma (ARIA), 2000, pages S147-S149]. To be enrolled, the subjects need to have sufficient rhinitis symptoms during the selection period. Excluded are patients with ENT (Ear-Nose-Throat) or eye infection preceding initial visit. […]
The severity of clinical symptoms is rated by the T5SS (sneezing, rhinorrhea, nasal pruritus, ocular pruritus and nasal congestion) evaluated each by a score from 0 to 3 each day. The impact on health related quality of life is measured using the Rhinoconjunctivitis Quality of Life Questionnaire (RQLQ, SF36) (E. JUNIPER and G. H. GUYATT, Development and testing of a new measure of health status for clinical trials in rhinoconjunctivitis, Clinical and Experimental Allergy 1991; 21:77-83; E. JUNIPER, Measuring Health Related Quality of Life in rhinitis, J. Allergy Clin. Immunol. 1997; 99:S742-9). […]
At each of the visits, diary book entries (T5SS, RQLQ, SF-36, indirect cost pharmaco-economic parameters, concomitant medication, outpatient consultations and adverse events) are verified and transferred into the Clinical Record Form and direct cost pharmaco-economic parameters will be recorded. […]
Adverse events are recorded by the patients on diary cards and discussed with the investigator at each visit. […]

[2] = molecular target: histamine H1-receptor (Homo sapiens, UniProt P35367); assay: in vitro affinity and selectivity for H1-receptors; type: binding
Sequence of histamine H1-receptor (P35367 whole entry, species assumed): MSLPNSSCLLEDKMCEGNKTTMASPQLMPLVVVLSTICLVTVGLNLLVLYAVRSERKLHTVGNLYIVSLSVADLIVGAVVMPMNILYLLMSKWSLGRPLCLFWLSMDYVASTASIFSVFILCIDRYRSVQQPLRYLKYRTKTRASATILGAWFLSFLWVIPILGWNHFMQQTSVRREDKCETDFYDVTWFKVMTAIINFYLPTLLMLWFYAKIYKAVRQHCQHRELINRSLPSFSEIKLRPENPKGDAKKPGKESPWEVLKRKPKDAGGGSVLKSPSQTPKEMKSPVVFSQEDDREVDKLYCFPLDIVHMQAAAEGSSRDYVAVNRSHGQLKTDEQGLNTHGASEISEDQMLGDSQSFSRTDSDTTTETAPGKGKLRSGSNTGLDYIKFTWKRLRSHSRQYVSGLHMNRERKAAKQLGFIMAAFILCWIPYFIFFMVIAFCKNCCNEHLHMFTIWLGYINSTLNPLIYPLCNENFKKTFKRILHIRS

Structure (SMILES)	duration of effect on persistent rhinitis [1]	duration of effect on quality of life [1]	effect on nasal congestion [1]	affinity for H1-receptors [2]
Cl.Cl.O=C(O)COCCN1CCN(C(c2ccc(F)cc2)c2ccc(F)cc2)CC1 [efletirizine dihydrochloride]	more than 4 weeks	more than 4 weeks	has an effect on nasal congestion	
O=C(O)COCCN1CCN(C(c2ccc(F)cc2)c2ccc(F)cc2)CC1 [Efletirizine, 2-[2-[4-[Bis(4-fluorophenyl)methyl]-1-piperazinyl]ethoxy]acetic acid]				high affinity
